Reference: US5602161A, “Tetrazolylphenyl pivalate derivatives and medicinal composition containing the same as effective component” (Wakamoto Pharmaceutical Co., Ltd., priority 1994, dated 1997)
Where a name gives a salt, the structure may show the parent alone.

Assays:
[1] = Cytotoxicity test (MTT, three days); assay type: cell-based; conditions: mouse, l1210 cells, read-out: Survival rate; for viability at 72 h, 1 µM: final concentration 1 μM; for viability at 72 h, 5 µM: final concentration 5 μM; for viability at 72 h, 10 µM: final concentration 10 μM
Description: L1210 (lymphocytic leukemia, mouse) cells in a logarithmic growth phase were collected and washed twice with HBSS (Hanks' balanced salt solution). The L1210 cells were resuspended at 5.0×10^4 cells/ml in RPMI 1640 medium containing 10% heat-inactivated fetal bovine serum. The cell suspension was dispensed in 100 μl aliquots into 96 well multi-plate. Each of compounds to be tested was dissolved in dimethylsulfoxide at a concentration of 10 mM. The solutions were stepwise diluted with RPMI 1640 solution containing 10% heat-inactivated fetal bovine serum. Each of the diluted samples was dispensed in an amount of 10 μl well in the 96 well multi-plate containing L1210 cells and incubated for three days at 37° C. in humidified 5% CO2 -air mixture. To each of the wells, 10 μl of MTT (3-(4,5-dimethylthiazol-2-yl)-2,5-diphenyltetrazolium bromide)(5 mg/ml in phosphate buffer free of Ca^2+ and Mg^2+) was added. Cultivation was continued for additional five hours at 37° C. in humidified 5% CO2 -air mixture. To each of the wells, 100 μl of 20% SDS (sodium dodecyl sulfate) in 0.01N HCl was added to solubilize the MTT formazan.
Absorbance was measured at 630 nm as a reference wavelength and 570 nm as a measuring wavelength using Corona Electric MTP22 Microplate Photometer. The measurement was conducted three times for each of the samples to obtain an average value and a standard deviation. Survival rate was calculated by the following equation:
Survival rate (5)=[(absorbance of test sample)/(absobance of […]

[2] = molecular target: T1, human sputum elastase (Homo sapiens, UniProt P08246); experiment: Inhibitory effect on elastase (human sputum), spectrophotometric assay with MeOSuc-Ala-Ala-Pro-Val-pNA; assay type: biochemical; conditions: S: human sputum elastase; pH 8.0, 37° C.; read-out: IC50
T1 sequence (P08246 30-247 limits assumed): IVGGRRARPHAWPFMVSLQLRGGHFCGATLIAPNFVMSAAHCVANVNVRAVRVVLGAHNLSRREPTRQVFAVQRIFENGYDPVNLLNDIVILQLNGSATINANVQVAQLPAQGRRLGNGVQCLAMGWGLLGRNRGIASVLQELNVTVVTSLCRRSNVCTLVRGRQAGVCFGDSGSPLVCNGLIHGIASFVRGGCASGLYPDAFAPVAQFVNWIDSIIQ
Description: Namely, it is a spectrophotometric assay using the synthesized substrate, methoxysuccinyl-alanyl-alanyl- prolyl-valyl-p-nitroanilide(MeOSuc-Ala-Ala-Pro-Val-pNA, Cambridge research biochemical Co.) which has high specificity on neutrophil elastase.
20 μl of a test compound of various concentrations and 20 μl of enzyme solution (13 unit/ml) were added to 400 μl of 0.1M sodium phosphate buffer (pH 8.0). The mixture was incubated at 37° C. for 5 min, and then 20 μl of the substrate was added to the mixture in a final volume of 460 μl. The reaction was conducted by incubating thus obtained mixture at 37° C. for 20 min. The reaction was stopped by the addition of 300 μl of 20% acetic acid into the reaction mixture, and then p-nitroanilide released was measured by the spectrophotometrically at 405 nm.
Inhibition percents of the test compounds were calculated by the following equation:
Inhibition %=[1-(OD 405 nm value of the testing sample-background)/(OD 405 nm value of the control-background)]×100

| SMILES | IC50 [2] [nM] | also measured |
| --- | --- | --- |
| CC(C)c1ccc(-n2nnc(-c3ccc(OC(=O)C(C)(C)C)cc3)n2)cc1 [Example 6, 4-[2-(4-Isopropylphenyl)tetrazol-5-yl)phenyl pivalate] | 4400 | viability at 72 h, 1 µM [1]: 94.9%; viability at 72 h, 5 µM [1]: 88.7%; viability at 72 h, 10 µM [1]: 70.1% |
| CC(C)(C)C(=O)Oc1ccc(-c2nnn(Cc3ccccc3)n2)cc1 [Example 9, 4-(2-Benzyltetrazol-5-yl)phenyl pivalate] | 170 | viability at 72 h, 1 µM [1]: 93.9%; viability at 72 h, 5 µM [1]: 100%; viability at 72 h, 10 µM [1]: 98.1% |
| COc1ccc(COCCCCn2nnc(-c3ccccc3OC(=O)C(C)(C)C)n2)cc1 [Example 22, 2-[2-[4-(4-Methoxybenzyloxy)butyl]tetrazol-5-yl]phenyl pivalate] | 4300 | viability at 72 h, 1 µM [1]: 102%; viability at 72 h, 5 µM [1]: 86.4%; viability at 72 h, 10 µM [1]: 86.7% |
| CC(C)Cn1nnc(-c2ccc(OC(=O)C(C)(C)C)cc2)n1 [Example 37, 4-[2-(2-Methylpropyl)tetrazol-5-yl]phenyl pivalate] | 180 | viability at 72 h, 1 µM [1]: 92.5%; viability at 72 h, 5 µM [1]: 106%; viability at 72 h, 10 µM [1]: 95.5% |
| CC(C)(C)C(=O)Oc1ccc(-c2nnn(Cc3ccc(N4CCCC4)cc3)n2)cc1 [Example 50, 4-[2-(4-Pyrrolidinobenzyl)tetrazol-5-yl]phenyl pivalate] | 1700 |  |
| CC(C)(C)C(=O)Oc1ccc(-c2nnn(Cc3ccccc3C(=O)O)n2)cc1 [Example 52, 2-[5-(4-Pivaloyloxyphenyl)tetrazol-2-ylmethyl]benzoic acid] | 350 |  |
| CC(C)(C)C(=O)Oc1ccc(-c2nnn(Cc3ccc(CC(=O)O)cc3)n2)cc1 [Example 53, 4-[5-(4-Pivaloyloxyphenyl)tetrazol-2-ylmethyl]phenylacetic acid] | 110 |  |
| Cc1cc(-c2nnn(Cc3ccc(C(=O)O)cc3)n2)ccc1OC(=O)C(C)(C)C [Example 55, 4-[5-(3-Methyl-4-pivaloyloxyphenyl)tetrazol-2-ylmethyl]benzoic acid] | 1000 |  |
| COc1cc(-c2nnn(Cc3ccc(C(=O)O)cc3)n2)ccc1OC(=O)C(C)(C)C [Example 56, 4-[5-(3-Methoxy-4-pivaloyloxyphenyl)tetrazol-2-ylmethyl]benzoic acid] | 420 |  |
| C[C@H](NC(=O)c1ccc(Cn2nnc(-c3ccc(OC(=O)C(C)(C)C)cc3)n2)cc1)C(=O)O [Example 57, N-[4-[5-(4-Pivaloyloxyphenyl)tetrazol-2-ylmethyl]benzoyl]-L-alanine] | 420 |  |
| CC(C)(C)C(=O)Oc1ccc(-c2nnn(Cc3ccc(C(=O)NCC(=O)O)cc3)n2)cc1 [Example 58, N-[4-[5-(4-pivaloyloxyphenyl)tetrazol-2-ylmethyl]benzoyl]glycine] | 29 |  |
| CC(C)(C)C(=O)Oc1ccc(-c2nnn(Cc3ccc(C(=O)N[C@@H](CCC(=O)O)C(=O)O)cc3)n2)cc1 [Example 61, N-[4-[5-(4-Pivaloyloxyphenyl)tetrazol-2-ylmethyl]benzoyl]-L-glutamic acid] | 30 |  |
| CC(C)(C)C(=O)Oc1ccc(-c2nnn(Cc3ccc(C(=O)NCCCCCC(=O)O)cc3)n2)cc1 [Example 68, 6-[N-[4-[5-(4-Pivaloyloxyphenyl)tetrazol-2-ylmethyl]benzoyl]amino]caproic acid] | 200 |  |
| CC(C)(C)C(=O)Oc1ccc(-c2nnn(C(C(=O)NCC(=O)O)c3ccccc3)n2)cc1 (stereo not shown) [Example 70, N-[2-Phenyl-2-[5-(4-pivaloyloxyphenyl)tetrazol-2-yl]acetyl]glycine] | 1000 |  |
| CC(C)(C)C(=O)Oc1ccc(-c2nnn(Cc3ccc(C(=O)NCCN)cc3)n2)cc1 [Example 71, N-(2-Aminoethyl)-4-[5-(4-pivaloyloxyphenyl)tetrazol-2-ylmethyl]benzamide Hydrochloride] | 260 |  |
| CC(C)(C)C(=O)Oc1ccc(-c2nnn(CCO)n2)cc1 [Example 72, 4-[2-(2-Hydroxyethyl)tetrazol-5-yl]phenyl pivalate] | 500 |  |
| CC(C)(C)C(=O)Oc1ccc(-c2nnn(Cc3ccc(N)cc3)n2)cc1 [Example 76, 4-[2-(4-Aminobenzyl)tetrazol-5-yl]phenyl pivalate] | 180 |  |
| CC(C)(C)C(=O)Oc1ccc(-c2nnn(Cc3cccc(N)c3)n2)cc1 [Example 77, 4-[2-(3-Aminobenzyl)tetrazol-5-yl]phenyl pivalate] | 150 |  |
| CC(C)(C)C(=O)Oc1ccc(-c2nnn(Cc3ccccc3NS(C)(=O)=O)n2)cc1 [Example 79, 4-[2-[2-(Methylsulfonylamino)benzyl]tetrazol-5-yl]phenyl pivalate] | 140 |  |

| SMILES | IC50 [2] [nM] | also measured |
| --- | --- | --- |
| CC(C)(C)C(=O)Oc1ccc(-c2nnn(CC(=O)O)n2)cc1 [Example 80, 5-(4-Pivaloyloxyphenyl)-2-tetrazoleacetic acid] |  | viability at 72 h, 1 µM [1]: 93.9%; viability at 72 h, 5 µM [1]: 98.1%; viability at 72 h, 10 µM [1]: 109% |
| CC(C)(C)C(=O)Oc1ccc(-c2nnn(Cc3ccccc3OCC(=O)O)n2)cc1 [Example 81, 2-[5-(4-Pivaloyloxyphenyl)tetrazol-2-ylmethyl]phenoxyacetic acid] | 59 |  |
| CC(C)(C)C(=O)Oc1ccc(-c2nnn(Cc3cccc(OCC(=O)O)c3)n2)cc1 [Example 82, 3-[5-(4-Pivaloyloxyphenyl)tetrazol-2-ylmethyl]phenoxyacetic acid] | 92 |  |
| CC(C)(C)C(=O)Oc1ccc(-c2nnn(Cc3ccc(OCC(=O)O)cc3)n2)cc1 [Example 83, 4-[5-(4-Pivaloyloxyphenyl)tetrazol-2-ylmethyl]phenoxyacetic acid] | 84 |  |
| CC(C)(C)C(=O)Oc1ccc(-c2nnn(Cc3ccccc3OCCN)n2)cc1 [Example 84, 4-[2-[2-(2-Aminoethoxy)benzyl]tetrazol-5-yl]phenyl pivalate Hydrochloride] | 720 |  |
| CC(C)(C)C(=O)Oc1ccc(-c2nnn(Cc3cccc(OCCN)c3)n2)cc1 [Example 85, 4-[2-[3-(2-Aminoethoxy)benzyl]tetrazol-5-yl]phenyl pivalate Hydrochloride] | 77 |  |
| CC(C)(C)C(=O)Oc1ccc(-c2nnn(Cc3ccc(OCCN)cc3)n2)cc1 [Example 86, 4-[2-[4-(2-Aminoethoxy)benzyl]tetrazol-5-yl]phenyl pivalate Hydrochloride] | 80 |  |
| CC(C)(C)C(=O)Oc1ccc(-c2nnn(Cc3ccc(NC(=O)CN)cc3)n2)cc1 [Example 87, 4-[2-[4-(Glycylamino)benzyl]tetrazol-5-yl]phenyl pivalate Hydrochloride] | 58 |  |
| COc1cc(-c2nnn(Cc3cccc(OCCN)c3)n2)ccc1OC(=O)C(C)(C)C [Example 88, 4-[2-[3-(2-Aminoethoxy)benzyl]tetrazol-5-yl]-2-methoxyphenyl pivalate Hydrochloride] | 650 |  |
| CC(C)(C)C(=O)Oc1ccc(-c2nnn(Cc3cccc(CCCN)c3)n2)cc1 [Example 89, 4-[2-[3-(3-Aminopropyl)benzyl]tetrazol-5-yl]phenyl pivalate Hydrochloride] | 170 |  |
| CNc1ccc(Cn2nnc(-c3ccc(OC(=O)C(C)(C)C)cc3)n2)cc1 [Example 90, 4-[2-(4-Methylaminobenzyl)tetrazol-5-yl]phenyl pivalate] | 110 |  |
| CNc1ccc(Cn2nnnc2-c2ccc(OC(=O)C(C)(C)C)cc2)cc1 [Example 91, 4-[1-(4-Methylaminobenzyl)tetrazol-5-yl]phenyl pivalate] | 580 |  |
| CC(C)(C)C(=O)Oc1ccc(-c2nnn(CCN)n2)cc1 [Example 92, 4-[2-(2-Aminoethyl)tetrazol-5-yl]phenyl pivalate Hydrochloride] | 1600 |  |
| CC(C)c1ccc(Cn2nnnc2-c2ccc(OC(=O)C(C)(C)C)cc2)cc1 [Example 96, 4-[1-(4-Isopropylbenzyl)tetrazol-5-yl]phenyl pivalate] | 140 |  |
| CCN(C)c1ccc(Cn2nnc(-c3ccc(OC(=O)C(C)(C)C)cc3)n2)cc1 [Example 97, 4-[2-[4-(Ethylmethylamino)benzyl]tetrazol-5-yl]phenyl pivalate] | 150 |  |
| CCCN(C)c1ccc(Cn2nnc(-c3ccc(OC(=O)C(C)(C)C)cc3)n2)cc1 [Example 98, 4-[2-[4-(Methylpropylamino)benzyl]tetrazol-5-yl]phenyl pivalate] | 150 |  |
| CN(C)c1ccc(Cn2nnnc2-c2ccc(OC(=O)C(C)(C)C)cc2)cc1 [Example 99, 4-[1-[4-(Dimethylamino)benzyl]tetrazol-5-yl]phenyl pivalate] | 340 |  |
| CN(C)c1cccc(Cn2nnc(-c3ccc(OC(=O)C(C)(C)C)cc3)n2)c1 [Example 100, 4-[2-[3-(Dimethylamino)benzyl]tetrazol-5-yl]phenyl pivalate] | 250 |  |
| CN(C)c1ccccc1Cn1nnc(-c2ccc(OC(=O)C(C)(C)C)cc2)n1 [Example 101, 4-[2-[2-(Dimethylamino)benzyl]tetrazol-5-yl]phenyl pivalate] | 380 |  |
